Experiment in all cases: DTP human tumour cell line panel, 48 h
The subject of assay [1] is 786-0 renal.
For assay [2], the system named is ACHN renal.
In assay [3] the test system is CAKI-1 renal.
Assay [4] deals with HCT-116 colon.
Assay [5] has as its system K-562 leukemia.
Assay [6] relates to MDA-MB-435.
The test system of assay [7] is SK-MEL-2 melanoma.
For assay [8], the system named is SK-MEL-5 melanoma.
Assay [9] deals with U251 CNS.
The subject of assay [10] is TK-10 renal.

The record followed here is PubChem BioAssay (NCI).

Values joined by “and” are separate entries in the source; they are usually repeats but may differ in a detail not shown here. Identical values can stand only once.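 Method: 48-hour compound exposure of cells in 96-well plates, five concentrations, linear interpolation of endpoints. At the GI50, growth is halved. TGI denotes the concentration required for complete inhibition of growth.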

Regarding `O=C1CCCC1CC(CN1CCOCC1)Sc1nnnn1-c1ccccc1` (configuration not stated), the TGI – broadly, the concentration giving total growth inhibition – in [1] was over 100 µM; in assay [2] it was over 100 µM; in assay [3], 79.1 µM; in [4] it was over 100 µM; in [5] it was over 100 µM; in [6] it was over 100 µM. The TGI in [7], in assay [8] and in [9] was over 100 µM each time.
Take `O=S(=O)(O)c1cc(S(=O)(=O)O)c2cc(N=Nc3ccc(N=Nc4ccc(/C=C/c5ccc(N=[N+]([O-])c6ccc(/C=C/c7ccc(N=Nc8ccc(N=Nc9ccc%10cc(S(=O)(=O)O)cc(S(=O)(=O)O)c%10c9)cc8)cc7S(=O)(=O)O)c(S(=O)(=O)O)c6)cc5S(=O)(=O)O)c(S(=O)(=O)O)c4)cc3)ccc2c1`: the TGI in [4], in assay [5], in assay [7], in assay [8] and in assay [9] was over 100 µM in each case.
For the compound `Cc1ccc(/C=c2\c(=O)[nH]c3nc4ccccc4c(=O)n23)cc1`, the total growth inhibition concentration (TGI) is over 100 µM in [1]; over 100 µM in [2]; over 100 µM in assay [3]; over 100 µM in [4]; 60.5 µM in assay [6]; over 100 µM in assay [7]. Also, the TGI was over 100 µM in assay [10] and 38 µM in [9].
Consider `N#CC1=C(O)NC(O)=C(C#N)C1c1c(Cl)cccc1Cl`, for which the TGI in assay [2] is over 100 µM; in [3], over 100 µM; in assay [4], over 100 µM; in [5] it was over 100 µM; in assay [7] it was 52.3 µM; in assay [8], over 100 µM. In addition, the TGI in assay [10] and in [9] was over 100 µM in each case.
For the compound `C=C1c2c(n(S(=O)(=O)c3ccccc3)c3ccccc23)[C@@]2(C(=O)OC)CC3C=CC2N1C3`, the TGI in assay [1], in assay [2], in [3], in assay [4], in [5] and in assay [6] was over 100 µM in each case. For the same compound, the concentration for total growth inhibition (TGI) in [7], in assay [10] and in assay [9] was over 100 µM each time.
In the case of `CCOC(=O)c1nc2ccccc2nc1Nc1ccc(C(=O)OC)s1`, the concentration for total growth inhibition (TGI) in assay [1], in [2], in [3], in [4], in assay [6] and in [7] was over 100 µM each time. In addition, the TGI in assay [8], in [10] and in [9] was over 100 µM in each case.
Consider `CC(=O)NC1C(OCc2ccccc2)OC(CO)C(O)C1OC(C)C(=O)NC(C(=O)NC(CCC(=O)NCCCNc1ccc([N+](=O)[O-])c2[nH]c3ccccc3c(=O)c12)C(N)=O)C(C)C` (configuration not stated), for which the concentration for total growth inhibition (TGI) in assay [1], in assay [2], in assay [3], in [4], in assay [6] and in assay [7] was over 100 µM throughout. Further, the total growth inhibition concentration (TGI) in [8], in assay [10] and in assay [9] was over 100 µM each time.
Consider `COc1ccc(NC(=O)CSC(=O)c2ccccc2)c(SCCSSCCSc2cc(OC)ccc2NC(=O)CSC(=O)c2ccccc2)c1`, for which the concentration for total growth inhibition (TGI) in [1], in assay [2], in [3], in assay [4], in [6] and in assay [7] was over 100 µM throughout. Besides, the TGI in assay [8], in assay [10] and in assay [9] was over 100 µM throughout.
Take `N#Cc1ccc(-c2ccc(Cl)cc2)n(C2OC(CO)C(O)C(O)C2O)c1=S` (configuration not stated): the total growth inhibition concentration (TGI) in [1] is over 100 µM; in [2], over 100 µM; in assay [3], over 100 µM; in [4] it was over 100 µM; in assay [5] it was over 100 µM; in assay [7], > 100 µM and 52.5 µM. The TGI in [8], in [10] and in assay [9] was over 100 µM throughout. Further, the GI50 (usually the concentration at which growth is held to half of that of the control) in assay [7] was > 100 µM and 10.6 µM; in [10] it was > 100 µM and 49 µM; in [9], > 100 µM and 20 µM.
In the case of `COC(=O)/C=C1\C(CO[Si](C)(C)C(C)(C)C)OC(n2cc(C)c(=O)n(C)c2=O)C1O[Si](C)(C)C(C)(C)C` (configuration not stated), the TGI in [1], in assay [2], in [4], in assay [5], in assay [6] and in assay [7] was over 100 µM each time. In addition, the TGI in [8], in [10] and in [9] was over 100 µM in each case.
In the case of `O=S(=O)(O)c1ccc(O)c(N=Nc2c(O)ccc3ccccc23)c1`, the TGI in [1], in assay [3], in assay [4], in assay [5], in assay [6] and in assay [7] was over 100 µM each time. For the same compound, the TGI in assay [8], in [10] and in [9] was over 100 µM each time.
Consider `CC(=O)/C=C(/C)[O-].CC(=O)/C=C(/C)[O-].CC(=O)[CH-]C(C)=O.CC(=O)[CH-]C(C)=O.[Zr+4]`, for which the GI50 in assay [2] was over 100 µM; in assay [4], 3.89 µM; in [5] it was over 100 µM; in assay [7], over 100 µM; in assay [10] it was over 100 µM; in [9] it was over 100 µM. The TGI is over 100 µM in [2]; 16.3 µM in assay [4]; over 100 µM in [5]; over 100 µM in assay [7]; over 100 µM in [10]; over 100 µM in assay [9].
As to `N#CCCN(CCCCN(CCC#N)C(=O)Nc1ccccc1)C(=O)Nc1ccccc1`, the concentration for total growth inhibition (TGI) in assay [1], in [2], in assay [3], in assay [4], in assay [5] and in assay [6] was over 100 µM each time. Further, the total growth inhibition concentration (TGI) in [7], in assay [8] and in assay [9] was over 100 µM in each case.
